Results: patent US20050032873A1, “3-Amino chroman and 2-amino tetralin derivatives” (Wyeth, priority 2003, published 2005)
Where two headings read alike, the source gives them in different places.

Experiments:
5-HT1A receptor [1] = biological target: T1, 5-HT1A receptor (Homo sapiens, UniProt P08908); test: cAMP accumulation assay, 5-HT1A function; type: cell-based; details: for Emax / 5-HT1A Function cAMP (Emax): in brackets after EC50 or IC50; for Emax: read-out: 5-HT1A Function cAMP (Emax); for EC50: cells marked EC50 (agonist)
T1 sequence (P08908 1-422): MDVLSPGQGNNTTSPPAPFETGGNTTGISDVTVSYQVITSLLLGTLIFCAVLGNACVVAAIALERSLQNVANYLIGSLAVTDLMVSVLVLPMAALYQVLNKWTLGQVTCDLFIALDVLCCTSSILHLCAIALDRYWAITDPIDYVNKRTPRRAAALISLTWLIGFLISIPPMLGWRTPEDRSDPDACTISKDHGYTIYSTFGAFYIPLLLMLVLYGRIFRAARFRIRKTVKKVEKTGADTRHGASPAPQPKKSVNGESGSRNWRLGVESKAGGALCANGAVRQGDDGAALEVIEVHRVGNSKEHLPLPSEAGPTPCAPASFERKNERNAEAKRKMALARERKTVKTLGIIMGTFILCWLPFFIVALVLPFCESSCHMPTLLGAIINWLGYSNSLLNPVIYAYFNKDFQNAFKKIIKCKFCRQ

[2] = biological target: T2, cloned human 5-HT1A receptors (Homo sapiens, UniProt P08908); test: 35S-GTPγS binding assay, 5-HT1A function; type: biochemical; details: for IC50: antagonist potency, reversal of 8-OH-DPAT, read-out: 5-HT1A Function GTPγS IC50
T2 construct: expressed in transfected cells
T2 sequence (P08908 1-422): T1 sequence (P08908 1-422)

serotonin transporter = biological target: T3, serotonin transporter (Rattus norvegicus, UniProt P31652); test: 5-HT transporter affinity: displacement of 3H-paroxetine from male rat cortical membranes; type: binding; details: displacement of 3H-paroxetine; male rat cortical membranes; read-out: 5-HT Transporter Affinity Ki
T3 construct: displace ^3H-paroxetine from male rat cortical membranes; from tissue; host or cells: male rat cortical membranes

5-HT1A receptor [3] = biological target: T1, 5-HT1A receptor; test: 5-HT1A receptor affinity: displacement of [3H] 8-OH-DPAT; type: binding; set-up: expressed in transfected cells; details: for inhibition at 1 µM: read-out: 5-HT1A Receptor Affinity, % @ 1 μM; for Ki: displacement of [3H] 8-OH-DPAT, CHO cells stably transfected with human 5-HT1A receptors, read-out: 5-HT1A Receptor Affinity Ki
[4] = maximum inhibitory effect, in brackets after IC50, read-out: 5-HT1A Function GTPγS (Imax)
[5] = maximum stimulatory effect, in brackets after EC50, read-out: 5-HT1A Function GTPγS (Emax)
[6] = maximum inhibitory effect, in brackets after IC50

T3 sequence (P31652 whole entry): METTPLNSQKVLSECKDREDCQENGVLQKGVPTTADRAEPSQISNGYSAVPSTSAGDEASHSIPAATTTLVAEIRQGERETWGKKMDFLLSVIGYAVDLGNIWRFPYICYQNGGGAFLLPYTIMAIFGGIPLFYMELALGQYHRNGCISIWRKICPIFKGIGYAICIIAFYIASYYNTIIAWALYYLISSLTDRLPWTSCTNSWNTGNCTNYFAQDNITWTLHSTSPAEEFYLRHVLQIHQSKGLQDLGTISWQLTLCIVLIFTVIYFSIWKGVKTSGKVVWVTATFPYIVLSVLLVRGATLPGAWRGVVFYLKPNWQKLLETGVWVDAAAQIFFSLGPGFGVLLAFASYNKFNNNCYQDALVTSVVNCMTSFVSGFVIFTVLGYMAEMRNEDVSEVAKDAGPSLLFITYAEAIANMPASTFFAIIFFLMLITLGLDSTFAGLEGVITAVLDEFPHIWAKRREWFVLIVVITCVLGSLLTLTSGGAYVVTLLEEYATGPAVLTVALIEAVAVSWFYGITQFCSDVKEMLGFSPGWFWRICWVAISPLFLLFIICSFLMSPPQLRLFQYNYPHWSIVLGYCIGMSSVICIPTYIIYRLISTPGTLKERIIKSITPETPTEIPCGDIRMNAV

For `NC(=O)c1ccc(F)c2c1CC(N(CCCc1c[nH]c3ccc(F)cc13)CC1CC1)CO2` (centres unmarked) [Compound 5, 3-{(cyclopropylmethyl)[3-(5-fluoro-1H-indol-3-yl)propyl]amino}-8-fluorochromane-5-carboxamide], the Emax (5-HT1A receptor [1]) was 0%, the Emax [2, 4] was 88.2% and the Emax [2, 5] was 28.4%. For the same compound, the Ki (serotonin transporter) was 0.0036 µM.

`NC(=O)c1ccc(F)c2c1CC(N(CCCc1c[nH]c3ccc(F)cc13)C1CCC1)CO2` (centres unmarked) [Compound 4, 3-{cyclobutyl[3-(5-fluoro-1H-indol-3-yl)propyl]amino}-8-fluorochromane-5-carboxamide] gave an Emax (5-HT1A receptor [1]) of 0% and a Ki (serotonin transporter) of 0.0026 µM.

Compound `CNC(=O)c1ccc(F)c2c1CC(NCCc1c[nH]c3ccc(F)cc13)CO2` (centres unmarked) [Compound 84, 8-fluoro-3-{[2-(5-fluoro-1H-indol-3-yl)ethyl]amino}-N-methylchromane-5-carboxamide] has an inhibition at 1 µM (5-HT1A receptor [3]) of 0% and a Ki (serotonin transporter) of 0.083 µM.

For `O=C(NCc1ccccc1)c1ccc(F)c2c1CC(N(CCCc1c[nH]c3ccc(F)cc13)C1CCC1)CO2` (centres unmarked) [Compound 69, N-benzyl-3-{cyclobutyl[3-(5-fluoro-1H-indol-3-yl)propyl]amino}-8-fluorochromane-5-carboxamide], the inhibition at 1 µM (5-HT1A receptor [3]) was 3% and the Ki (serotonin transporter) was 0.0151 µM.

With `COc1cccc2c1CC(N(CCCCc1c[nH]c3ccc(F)cc13)C1CCC1)CO2` (centres unmarked) [Compound 36, N-cyclobutyl-N-[4-(5-fluoro-1H-indol-3-yl)butyl]-N-(5-methoxy-3,4-dihydro-2H-chromen-3-yl)amine] the EC50 (5-HT1A receptor [1]) was 0.0123 µM, the Emax (5-HT1A receptor [1]) was 61% and the Ki (5-HT1A receptor [3]) was 0.0117 µM. For the same compound, the IC50 [2] was 0.668 µM and the Emax [2, 4] was 56%.

Work on `CC(CCc1c[nH]c2c(F)cc(F)cc12)N(CC1CC1)C1COc2c(F)ccc(C(N)=O)c2C1` (single isomer, unassigned) [Compound 154b, 3-{(cyclopropylmethyl)[3-(5,7-difluoro-1H-indol-3-yl)-1-methylpropyl]amino}-8-fluorochromane-5-carboxamide] yielded a Ki (5-HT1A receptor [3]) of 0.0882 µM and a Ki (serotonin transporter) of 0.217 µM.

Compound `NC(=O)c1ccc(F)c2c1CC(N(CCCc1c[nH]c3ccc(F)cc13)C1CCC1)CO2` (single isomer, unassigned; (+)) [Compound 4a, (+)-3-{cyclobutyl[3-(5-fluoro-1H-indol-3-yl)propyl]amino}-8-fluorochromane-5-carboxamide] has an Emax (5-HT1A receptor [1]) of 0% and a Ki (serotonin transporter) of 0.00493 µM.

With `COC(=O)c1ccc(F)c2c1CC(NCCCc1c[nH]c3ccc(F)cc13)CO2` (centres unmarked) [Compound 54, Methyl 8-fluoro-3-{[3-(5-fluoro-1H-indol-3-yl)propyl]amino}chromane-5-carboxylate] the 5-HT1A Function GTPγS (Emax) ([2]; maximum stimulatory effect, in brackets after EC50) was 85%.

`NC(=O)c1ccc(F)c2c1CC(N(CCCc1c[nH]c3ccc(F)cc13)Cc1ccccc1)CO2` (centres unmarked) [Compound 74, 3-{benzyl[3-(5-fluoro-1H-indol-3-yl)propyl]amino}-8-fluorochromane-5-carboxamide] gave an inhibition at 1 µM (5-HT1A receptor [3]) of 20% and a Ki (serotonin transporter) of 0.641 µM.

Compound `NC(=O)c1ccc(F)c2c1CC(NCCCn1ccc3ccccc31)CO2` (centres unmarked) [Compound 184, 8-Fluoro-3-{[3-(1H-indol-1-yl)propyl]amino}chromane-5-carboxamide] has an inhibition at 1 µM (5-HT1A receptor [3]) of 46% and a Ki (serotonin transporter) of 0.611 µM.

For `NC(=O)c1ccc(F)c2c1CC(N(CCCc1c[nH]c3ccc(F)cc13)CC1CC1)CO2` (single isomer, unassigned; (+)) [Compound 5b, (+)-3-{(cyclopropylmethyl)[3-(5-fluoro-1H-indol-3-yl)propyl]amino}-8-fluorochromane-5-carboxamide], the 5-HT1A Function cAMP (Emax) (5-HT1A receptor [1]) was 69%, the 5-HT1A Function GTPγS (Imax) [2, 6] was 82% and the Emax [2, 5] was 18%. For the same compound, the Ki (serotonin transporter) was 0.0037 µM.

`NC(=O)c1ccc(F)c2c1CC(N(CCCc1c[nH]c3ccc(F)cc13)C1CCC1)CO2` (single isomer, unassigned; (-)) [Compound 4b, (−)-3-{cyclobutyl[3-(5-fluoro-1H-indol-3-yl)propyl]amino}-8-fluorochromane-5-carboxamide] gave a 5-HT1A Function cAMP (Emax) (5-HT1A receptor [1]) of 0% and a Ki (serotonin transporter) of 0.00153 µM.

`NC(=O)c1ccc(F)c2c1CC(NCCCc1c[nH]c3c(Cl)cccc13)CO2` (centres unmarked) [Compound 109, 3-{[3-(7-chloro-1H-indol-3-yl)propyl]amino}-8-fluorochromane-5-carboxamide] showed a Ki (5-HT1A receptor [3]) of 0.0277 µM and a Ki (serotonin transporter) of 0.069 µM.

`NC(=O)c1ccc(F)c2c1OCC(N(CCCCc1c[nH]c3ccc(F)cc13)C1CCC1)C2` (centres unmarked) [Compound 126, 3-{cyclobutyl[4-(5-fluoro-1H-indol-3-yl)butyl]amino}-5-fluorochromane-8-carboxamide] gave an inhibition at 1 µM (5-HT1A receptor [3]) of 0% and a Ki (serotonin transporter) of 0.0171 µM.

In the case of `CCCN(C(C)CCc1c[nH]c2ccc(F)cc12)C1COc2c(F)ccc(C(N)=O)c2C1` (single isomer, unassigned) [Compound 12d, 8-fluoro-3-[[3-(5-fluoro-1H-indol-3-yl)-1-methylpropyl](propyl)amino]-3,4-dihydro-2H-chromene-5-carboxamide], the IC50 [2] is reported as 6 µM, the 5-HT1A Function GTPγS (Imax) [2, 6] is reported as 13% and the Ki (serotonin transporter) is reported as 0.152 µM.

`CCCN(CCCCn1ccc2cccc(F)c21)C1COc2c(F)ccc(C(N)=O)c2C1` (centres unmarked) [Compound 190, 8-Fluoro-3-[[4-(7-fluoro-1H-indol-1-yl)butyl](propyl)amino]chromane-5-carboxamide] showed an EC50 (5-HT1A receptor [1]) of 0.321 µM, an Emax (5-HT1A receptor [1]) of 59% and a Ki (5-HT1A receptor [3]) of 0.0166 µM. The IC50 [2] was 3.6 µM and the Emax [2, 4] was 84%.

Compound `NC(=O)c1ccc(F)c2c1OCC(N(CCCc1c[nH]c3ccc(F)cc13)C1CCC1)C2` (centres unmarked) [Compound 122, 3-{cyclobutyl[3-(5-fluoro-1H-indol-3-yl)propyl]amino}-5-fluorochromane-8-carboxamide] has an inhibition at 1 µM (5-HT1A receptor [3]) of 0% and a Ki (serotonin transporter) of 0.071 µM.

Compound `CCCN(C(C)CCc1c[nH]c2ccc(C#N)cc12)C1COc2c(F)ccc(C(N)=O)c2C1` (single isomer, unassigned) [Compound 13d, 3-[[3-(5-cyano-1H-indol-3-yl)-1-methylpropyl](propyl)amino]-8-fluoro-3,4-dihydro-2H-chromene-5-carboxamide] has a Ki (serotonin transporter) of 0.112 µM.

Compound `NC(=O)c1ccc(F)c2c1CC(N(CCCc1c[nH]c3ccc(F)cc13)CC1CC1)CO2` (single isomer, unassigned; (-)) [Compound 5a, (−)-3-{(cyclopropylmethyl)[3-(5-fluoro-1H-indol-3-yl)propyl]amino}-8-fluorochromane-5-carboxamide] has a 5-HT1A Function cAMP (Emax) (5-HT1A receptor [1]) of 0%, an Emax [2, 4] of 100% and a Ki (serotonin transporter) of 0.0041 µM.

`COc1ccc2[nH]cc(CCCNC3COc4c(F)ccc(C(N)=O)c4C3)c2c1` (centres unmarked) [Compound 104, 8-fluoro-3-{[3-(5-methoxy-1H-indol-3-yl)propyl]amino}chromane-5-carboxamide] gave a Ki (5-HT1A receptor [3]) of 0.0167 µM and a Ki (serotonin transporter) of 4.05 µM.

Compound `NC(=O)c1ccc(F)c2c1CC(NCCCc1c[nH]c3ccc(F)cc13)CO2` (single isomer, unassigned; (-)) [Compound 1b, (−)-8-fluoro-3-{[3-(5-fluoro-1H-indol-3-yl)propyl]amino}chromane-5-carboxamide] has an inhibition at 1 µM (5-HT1A receptor [3]) of 47% and a Ki (serotonin transporter) of 0.076 µM.

With `NC(=O)c1ccc(F)c2c1OCC(N(CCCc1c[nH]c3c(F)cc(F)cc13)C1CCC1)C2` (centres unmarked) [Compound 131, 3-{cyclobutyl[3-(5,7-difluoro-1H-indol-3-yl)propyl]amino}-5-fluorochromane-8-carboxamide] the inhibition at 1 µM (5-HT1A receptor [3]) was 49% and the Ki (serotonin transporter) was 0.162 µM.

`NC(=O)c1ccc(F)c2c1CC(N(CCCCn1ccc3c(F)cccc31)C1CCC1)CO2` (centres unmarked) [Compound 204, 3-{Cyclobutyl[4-(4-fluoro-1H-indol-1-yl)butyl]amino}-8-fluorochromane-5-carboxamide] gave a Ki (5-HT1A receptor [3]) of 0.0174 µM and a Ki (serotonin transporter) of 0.288 µM.
